Laboratory results reported in paper PMC7586935 (Journal of Clinical Pharmacology, 2020).
Structures can show the parent of a compound that is named as a salt. Where two headings read alike, the source gives them in different places.

Tests used:
[1] = test system: HR, PR, and QRS of healthy volunteers; test: PK-PD analysis of other ECG parameters; format: in vivo, human
healthy volunteers [2] = test: Safety assessment: treatment-emergent adverse events; format: in vivo, human
[3] = test system: human ether‐a‐go‐go–related gene potassium channels; conditions: in vitro, at clinically relevant plasma concentrations; cited from earlier work
[4] = mean ± SE, cited from earlier work
healthy volunteers [5] = test: ECG outlier analyses; format: in vivo, human
[6] = test system: QTcF interval of healthy volunteers; test: Time-matched analysis of placebo-adjusted change from baseline QTcF; format: in vivo, human
[7] = test system: QT/QTc interval of healthy volunteers; test: Concentration-QTc
healthy volunteers [8] = test: ECG morphological analyses; format: in vivo, human
[9] = Plasma pharmacokinetics after single oral dose; format: in vivo; conditions: human; for AUC / Tmax: oral; for Cmax: po
CYP3A4 = conditions: cited from earlier work
[10] = 50 mg trazodone HCl with ritonavir (4 doses of 200 mg)
[11] = 50 mg trazodone HCl, control condition

O=c1n(CCCN2CCN(c3cccc(Cl)c3)CC2)nc2ccccn12 [Trazodone, Trazodone hydrochloride]
Slope of HR change from baseline vs trazodone plasma concentration ([1]; SE 0.8013): 2.199
Slope of PR change from baseline vs trazodone plasma concentration ([1]; in vivo): –3.6040
Slope of QRS change from baseline vs trazodone plasma concentration ([1]; in vivo): 0.0445
Predicted placebo-adjusted and baseline-corrected HR at mean Cmax ([1]; trazodone 20 mg): 1.45 bpm
Predicted placebo-adjusted and baseline-corrected HR at mean Cmax ([1]; trazodone 60 mg): 2.12 bpm
Predicted placebo-adjusted and baseline-corrected HR at mean Cmax ([1]; trazodone 140 mg): 2.76 bpm
Predicted placebo-adjusted and baseline-corrected PR at predicted Cmax ([1]; trazodone 140 mg): –7.4 ms
Predicted placebo-adjusted and baseline-corrected QRS at predicted Cmax ([1]; trazodone 140 mg): 0.115 ms
Dizziness, frequency of subjects (healthy volunteers [2]; trazodone 20 mg): 0%
Somnolence, frequency of subjects (healthy volunteers [2]; trazodone 20 mg): 44.4%
Dizziness, frequency of subjects (healthy volunteers [2]; trazodone 60 mg): 5.6%
Somnolence, frequency of subjects (healthy volunteers [2]; trazodone 60 mg): 50.0%
Headache, frequency of subjects (healthy volunteers [2]; trazodone 140 mg): 10%
Somnolence, frequency of subjects (healthy volunteers [2]; trazodone 140 mg): 85.0%
Vomiting, frequency of subjects (healthy volunteers [2]; trazodone 140 mg): 10%
Treatment-related ECG QT prolongation, frequency of subjects (healthy volunteers [2]; trazodone 140 mg, 1 subject): 5%
Treatment-related abdominal discomfort, frequency of subjects (healthy volunteers [2]; trazodone 140 mg, 1 subject): 5%
Treatment-related hypertension, frequency of subjects (healthy volunteers [2]; trazodone 140 mg, 1 subject): 5%
Treatment-related hypotension, frequency of subjects (healthy volunteers [2]; trazodone 140 mg, 1 subject): 5%
Treatment-related palpitations, frequency of subjects (healthy volunteers [2]; trazodone 140 mg, 1 subject): 5%
Inhibition of hERG potassium channels [3]: potent dose‐dependent inhibition
Elimination half-life [4, 10]: 894 ± 234 min
Peak plasma concentrations [4, 10]: 1125 ± 111 ng/mL
Elimination half-life [4, 11]: 402 ± 42 min
Peak plasma concentrations [4, 11]: 842 ± 64 ng/mL
Heart rate: Bradycardic outliers (healthy volunteers [5]; trazodone 20 mg, n = 18): 0 n (%)
Heart rate: Tachycardic outliers (healthy volunteers [5]; trazodone 20 mg, n = 18): 0 n (%)
PR interval: Outliers (healthy volunteers [5]; trazodone 20 mg, n = 18): 1 (6) n (%)
QRS interval: Outliers (healthy volunteers [5]; trazodone 20 mg, n = 18): 0 n (%)
QTcF >30‐60 ms inc change from baseline (healthy volunteers [5]; trazodone 20 mg, n = 18): 0 n (%)
QTcF >60 ms inc change from baseline (healthy volunteers [5]; trazodone 20 mg, n = 18): 0 n (%)
QTcF New >480 ms (healthy volunteers [5]; trazodone 20 mg, n = 18): 0 n (%)
QTcF New >500 ms (healthy volunteers [5]; trazodone 20 mg, n = 18): 0 n (%)
Heart rate: Bradycardic outliers (healthy volunteers [5]; trazodone 60 mg, n = 18): 0 n (%)
Heart rate: Tachycardic outliers (healthy volunteers [5]; trazodone 60 mg, n = 18): 1 (6) n (%)
PR interval: Outliers (healthy volunteers [5]; trazodone 60 mg, n = 18): 0 n (%)
QRS interval: Outliers (healthy volunteers [5]; trazodone 60 mg, n = 18): 0 n (%)
QTcF >30‐60 ms inc change from baseline (healthy volunteers [5]; trazodone 60 mg, n = 18): 1 (6) n (%)
QTcF >60 ms inc change from baseline (healthy volunteers [5]; trazodone 60 mg, n = 18): 0 n (%)
QTcF New >480 ms (healthy volunteers [5]; trazodone 60 mg, n = 18): 0 n (%)
QTcF New >500 ms (healthy volunteers [5]; trazodone 60 mg, n = 18): 0 n (%)
Heart rate: Bradycardic outliers (healthy volunteers [5]; trazodone 140 mg, n = 20): 1 (5) n (%)
Heart rate: Tachycardic outliers (healthy volunteers [5]; trazodone 140 mg, n = 20): 2 (10) n (%)
PR interval: Outliers (healthy volunteers [5]; trazodone 140 mg, n = 20): 1 (5) n (%)
QRS interval: Outliers (healthy volunteers [5]; trazodone 140 mg, n = 20): 0 n (%)
QTcF >30‐60 ms inc change from baseline (healthy volunteers [5]; trazodone 140 mg, n = 20): 6 (30) n (%)
QTcF >60 ms inc change from baseline (healthy volunteers [5]; trazodone 140 mg, n = 20): 0 n (%)
QTcF New >480 ms (healthy volunteers [5]; trazodone 140 mg, n = 20): 2 (10) n (%)
QTcF New >500 ms (healthy volunteers [5]; trazodone 140 mg, n = 20): 0 n (%)
Placebo-adjusted change from baseline QTcF, estimate (90%CI) ([6]; trazodone 20 mg, N = 16, 5 min postdose): –3.3 (–7.8 to 1.1) ms
Placebo-adjusted change from baseline QTcF, estimate (90%CI) ([6]; trazodone 20 mg, N = 16, 10 min postdose): –1.2 (–6.2 to 3.8) ms
Placebo-adjusted change from baseline QTcF, estimate (90%CI) ([6]; trazodone 20 mg, N = 16, 20 min postdose): –0.2 (–5.4 to 5.0) ms
Placebo-adjusted change from baseline QTcF, estimate (90%CI) ([6]; trazodone 20 mg, N = 16, 0.5 h postdose): 2.1 (–0.3 to 4.6) ms
Placebo-adjusted change from baseline QTcF, estimate (90%CI) ([6]; trazodone 20 mg, N = 16, 1 h postdose): 6.6 (1.5–11.7) ms
Placebo-adjusted change from baseline QTcF, estimate (90%CI) ([6]; trazodone 20 mg, N = 16, 2 h postdose): 3.5 (0.5–6.5) ms
Placebo-adjusted change from baseline QTcF, estimate (90%CI) ([6]; trazodone 20 mg, N = 16, 3 h postdose): 1.7 (–2.7 to 6.1) ms
Placebo-adjusted change from baseline QTcF, estimate (90%CI) ([6]; trazodone 20 mg, N = 16, 4 h postdose): 3.2 (–2.3 to 8.6) ms
Placebo-adjusted change from baseline QTcF, estimate (90%CI) ([6]; trazodone 20 mg, N = 16, 6 h postdose): –0.2 (–4.8 to 4.3) ms
Placebo-adjusted change from baseline QTcF, estimate (90%CI) ([6]; trazodone 20 mg, N = 16, 8 h postdose): 1.2 (–2.3 to 4.6) ms
Placebo-adjusted change from baseline QTcF, estimate (90%CI) ([6]; trazodone 20 mg, N = 16, 12 h postdose): 0.6 (–4.7 to 5.8) ms
Placebo-adjusted change from baseline QTcF, estimate (90%CI) ([6]; trazodone 20 mg, N = 16, 16 h postdose): –3.3 (–6.9 to 0.3) ms
Placebo-adjusted change from baseline QTcF, estimate (90%CI) ([6]; trazodone 20 mg, N = 16, 24 h postdose): 1.8 (–3.5 to 7.1) ms
Placebo-adjusted change from baseline QTcF, estimate (90%CI) ([6]; trazodone 60 mg, N = 16, 5 min postdose): –2.3 (–6.7 to 2.1) ms
Placebo-adjusted change from baseline QTcF, estimate (90%CI) ([6]; trazodone 60 mg, N = 16, 10 min postdose): 0.3 (–4.1 to 4.6) ms
Placebo-adjusted change from baseline QTcF, estimate (90%CI) ([6]; trazodone 60 mg, N = 16, 20 min postdose): 4.8 (–0.4 to 10.0) ms
Placebo-adjusted change from baseline QTcF, estimate (90%CI) ([6]; trazodone 60 mg, N = 16, 0.5 h postdose): 11.9 (8.6–15.3) ms
Placebo-adjusted change from baseline QTcF, estimate (90%CI) ([6]; trazodone 60 mg, N = 16, 2 h postdose): 8.8 (4.2–13.4) ms
Placebo-adjusted change from baseline QTcF, estimate (90%CI) ([6]; trazodone 60 mg, N = 16, 3 h postdose): 6.1 (1.9–10.2) ms
Placebo-adjusted change from baseline QTcF, estimate (90%CI) ([6]; trazodone 60 mg, N = 16, 4 h postdose): 7.9 (4.3–11.5) ms
Placebo-adjusted change from baseline QTcF, estimate (90%CI) ([6]; trazodone 60 mg, N = 16, 6 h postdose): 2.2 (–1.8 to 6.2) ms
Placebo-adjusted change from baseline QTcF, estimate (90%CI) ([6]; trazodone 60 mg, N = 16, 8 h postdose): –0.4 (–3.4 to 2.7) ms
Placebo-adjusted change from baseline QTcF, estimate (90%CI) ([6]; trazodone 60 mg, N = 16, 12 h postdose): 6.4 (1.7–11.0) ms
Placebo-adjusted change from baseline QTcF, estimate (90%CI) ([6]; trazodone 60 mg, N = 16, 16 h postdose): –1.4 (–5.6 to 2.7) ms
Placebo-adjusted change from baseline QTcF, estimate (90%CI) ([6]; trazodone 60 mg, N = 16, 24 h postdose): 2.0 (–3.0 to 6.9) ms
Placebo-adjusted change from baseline QTcF, estimate (90%CI) ([6]; trazodone 60 mg, N = 16, […] postdose): 16.9 ms
Increase in the QTcF interval (time-matched analysis) ([6]; trazodone 60 mg, between 30 minutes and […] postdose): > 10 ms
Placebo-adjusted change from baseline QTcF, estimate (90%CI) ([6]; trazodone 140 mg, N = 18, 5 min postdose): 0.8 (–2.7 to 4.4) ms
Placebo-adjusted change from baseline QTcF, estimate (90%CI) ([6]; trazodone 140 mg, N = 18, 10 min postdose): 0.5 (–3.0 to 4.0) ms
Placebo-adjusted change from baseline QTcF, estimate (90%CI) ([6]; trazodone 140 mg, N = 18, 20 min postdose): 11.6 (7.8–15.5) ms
Placebo-adjusted change from baseline QTcF, estimate (90%CI) ([6]; trazodone 140 mg, N = 18, 0.5 h postdose): 20.2 (16.4–23.9) ms
Placebo-adjusted change from baseline QTcF, estimate (90%CI) ([6]; trazodone 140 mg, N = 18, 1 h postdose): 24.5 (20.3–28.7) ms
Placebo-adjusted change from baseline QTcF, estimate (90%CI) ([6]; trazodone 140 mg, N = 18, 2 h postdose): 17.1 (13.4–20.8) ms
Placebo-adjusted change from baseline QTcF, estimate (90%CI) ([6]; trazodone 140 mg, N = 18, 3 h postdose): 14.5 (7.6–21.5) ms
Placebo-adjusted change from baseline QTcF, estimate (90%CI) ([6]; trazodone 140 mg, N = 18, 4 h postdose): 12.8 (8.5–17.1) ms
Placebo-adjusted change from baseline QTcF, estimate (90%CI) ([6]; trazodone 140 mg, N = 18, 6 h postdose): 6.7 (2.3–11.2) ms
Placebo-adjusted change from baseline QTcF, estimate (90%CI) ([6]; trazodone 140 mg, N = 18, 8 h postdose): 5.8 (0.9–10.7) ms
Placebo-adjusted change from baseline QTcF, estimate (90%CI) ([6]; trazodone 140 mg, N = 18, 12 h postdose): 7.9 (4.3–11.6) ms
Placebo-adjusted change from baseline QTcF, estimate (90%CI) ([6]; trazodone 140 mg, N = 18, 16 h postdose): –0.7 (–5.2 to 3.8) ms
Placebo-adjusted change from baseline QTcF, estimate (90%CI) ([6]; trazodone 140 mg, N = 18, 24 h postdose): 1.7 (–1.4 to 4.8) ms
Increase in the QTcF interval (time-matched analysis) ([6]; trazodone 140 mg, between 15 minutes and 4 hours postdose): > 10 ms
Predicted Mean Effect at Mean Cmax (placebo-corrected change from baseline QTcF, ΔΔQTcF) ([7]; trazodone 60 mg, mean Cmax 1269.0 ng/mL): 12.3 ms
Predicted Mean Effect at Mean Cmax (placebo-corrected change from baseline QTcF, ΔΔQTcF) ([7]; trazodone 140 mg, mean Cmax 2083.5 ng/mL): 19.8 ms
New ST‐segment depression changes (healthy volunteers [8]; trazodone 20 mg, n = 18): 0 n (%)
New ST‐segment elevation changes (healthy volunteers [8]; trazodone 20 mg, n = 18): 0 n (%)
New second‐degree heart block (healthy volunteers [8]; trazodone 20 mg, n = 18): 0 n (%)
New third‐degree heart block (healthy volunteers [8]; trazodone 20 mg, n = 18): 0 n (%)
New ST‐segment depression changes (healthy volunteers [8]; trazodone 60 mg, n = 18): 1 (6) n (%)
New ST‐segment elevation changes (healthy volunteers [8]; trazodone 60 mg, n = 18): 0 n (%)
New second‐degree heart block (healthy volunteers [8]; trazodone 60 mg, n = 18): 0 n (%)
New third‐degree heart block (healthy volunteers [8]; trazodone 60 mg, n = 18): 0 n (%)
New ST‐segment depression changes (healthy volunteers [8]; trazodone 140 mg, n = 20): 0 n (%)
New ST‐segment elevation changes (healthy volunteers [8]; trazodone 140 mg, n = 20): 0 n (%)
New second‐degree heart block (healthy volunteers [8]; trazodone 140 mg, n = 20): 0 n (%)
New third‐degree heart block (healthy volunteers [8]; trazodone 140 mg, n = 20): 0 n (%)
AUC ([9]; 20 mg): 2150 ± 909 ng·h/mL
Tmax ([9]; 20 mg): 30 min
AUC ([9]; 60 mg): 6240 ± 2030 ng·h/mL
Tmax ([9]; 60 mg): 30 min
AUC ([9]; 140 mg): 12800 ± 4910 ng·h/mL
Tmax ([9]; 140 mg): 18 min
Cmax ([9]; 20 mg): 413 ± 79.1 ng/mL
Cmax ([9]; 60 mg): 1270 ± 598 ng/mL
Cmax ([9]; 140 mg): 2080 ± 600 ng/mL
Metabolic pathway (CYP3A4): primarily metabolized by CYP3A4
